The source of these data is ChEMBL document CHEMBL4732123, “Discovery of 7-aminophenanthridin-6-one as a new scaffold for matrix metalloproteinase inhibitors with multitarget neuroprotective activity” (Eur J Med Chem, 2021).

The target of data set [1] is T1, Collagenase 3 (Homo sapiens, UniProt P45452). Description: Inhibition of recombinant human MMP13 (104 to 274 residues) using Mca-Pro-Leu-Gly-Leu-Dpa-Ala-Arg-NH2 expressed in Escherichia coli expression system as substrate incubated for 15 mins followed by substrate addition and measured after 2 to 4 hrs by fluorescence based assay.
Data set [2] in a line: Cytotoxicity against mouse SN-56 cells assessed as reduction in cell viability upto 100 uM incubated for 24 hrs by MTT assay. It is filed as cell-based. Conditions: sn-56, 24 h.
Data set [3] deals with SN-56. The data set is described as follows: Neuroprotective activity against H2O2-induced lipid peroxidation in mouse SN-56 cells assessed as increase in MDA level incubated for 24 hrs by lipid peroxidation MDA assay kit method. Format: functional, cell-based.
Data set [4] in a line: Neuroprotective activity against H2O2-induced lipid peroxidation in mouse SN-56 cells assessed as increase in MDA level at 1 to 150 uM incubated for 24 hrs by lipid peroxidation MDA assay kit method relative to control. Conditions: dose 1-150 µM. Format: functional.
Data set [5] addresses Matrix metalloproteinase-9 (Homo sapiens, UniProt P14780). The data set is described as follows: Inhibition of recombinant human MMP9 (107 to 449 residues) using Mca-Pro-Leu-Gly-Leu-Dpa-Ala-Arg-NH2 expressed in Escherichia coli expression system as substrate incubated for 15 mins followed by substrate addition and measured after 2 to 4 hrs by fluorescence based assay.
Data set [6] has as its target 72 kDa type IV collagenase (Homo sapiens, UniProt P08253). Description: Inhibition of recombinant human MMP2 (110 to 452 residues) using Mca-Pro-Leu-Gly-Leu-Dpa-Ala-Arg-NH2 expressed in yeast expression system as substrate incubated for 15 mins followed by substrate addition and measured after 2 to 4 hrs by fluorescence based assay.
In another data set the target is Neutrophil collagenase (Homo sapiens, UniProt P22894). The data set is described as follows: Inhibition of recombinant human MMP8 (99 to 269 residues) using Mca-Pro-Leu-Gly-Leu-Dpa-Ala-Arg-NH2 expressed in Escherichia coli expression system as substrate incubated for 15 mins followed by substrate addition and measured after 2 to 4 hrs by fluorescence based assay.

For data set [7], the system named is SN-56. Description: Neuroprotective activity against H2O2-induced cytotoxicity in mouse SN-56 cells assessed as increase in cell viability at 10 to 100 uM incubated for 24 hrs by MTT assay. Format: functional, cell-based. Particulars: dose 10-100 µM. Background: Tetrazolium assays rely on reduction of a dye to a coloured formazan, in cell work by metabolically active cells.

In data set [8] the target is T1, Collagenase 3. Description: Non-competitive inhibition of recombinant human MMP13 (104 to 274 residues) using Mca-Pro-Leu-Gly-Leu-Dpa-Ala-Arg-NH2 expressed in Escherichia coli expression system as substrate at 100 uM incubated for 15 mins followed by substrate addition and measured after 2 to 4 hrs by fluorescence based assay relative to control. Particulars: time 2-4.25 hrs.

For data set [9], the system named is SN-56. The data set is described as follows: Neuroprotective activity against H2O2-induced lipid peroxidation in mouse SN-56 cells assessed as increase in MDA level at 100 uM incubated for 24 hrs by lipid peroxidation MDA assay kit method. It is filed as functional, cell-based.

Structures are written as SMILES. Calls of active or inactive are those of the source. The rule behind the calls is not given here.

Neutrophil collagenase, sequence (P22894 whole entry, the tested form may be a part): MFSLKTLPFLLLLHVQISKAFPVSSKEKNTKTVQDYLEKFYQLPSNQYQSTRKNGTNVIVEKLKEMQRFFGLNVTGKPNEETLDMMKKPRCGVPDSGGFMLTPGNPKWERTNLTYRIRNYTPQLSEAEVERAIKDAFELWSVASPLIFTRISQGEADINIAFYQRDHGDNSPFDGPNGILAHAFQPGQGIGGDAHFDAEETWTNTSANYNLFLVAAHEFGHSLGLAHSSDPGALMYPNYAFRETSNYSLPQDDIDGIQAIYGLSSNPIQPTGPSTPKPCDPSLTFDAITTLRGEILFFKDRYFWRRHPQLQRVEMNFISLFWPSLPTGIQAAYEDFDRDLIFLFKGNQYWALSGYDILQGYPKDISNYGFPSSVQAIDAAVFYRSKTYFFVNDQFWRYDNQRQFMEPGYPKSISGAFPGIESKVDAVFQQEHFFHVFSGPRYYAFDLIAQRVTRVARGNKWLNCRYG
Matrix metalloproteinase-9, sequence (P14780 whole entry, the tested form may be a part): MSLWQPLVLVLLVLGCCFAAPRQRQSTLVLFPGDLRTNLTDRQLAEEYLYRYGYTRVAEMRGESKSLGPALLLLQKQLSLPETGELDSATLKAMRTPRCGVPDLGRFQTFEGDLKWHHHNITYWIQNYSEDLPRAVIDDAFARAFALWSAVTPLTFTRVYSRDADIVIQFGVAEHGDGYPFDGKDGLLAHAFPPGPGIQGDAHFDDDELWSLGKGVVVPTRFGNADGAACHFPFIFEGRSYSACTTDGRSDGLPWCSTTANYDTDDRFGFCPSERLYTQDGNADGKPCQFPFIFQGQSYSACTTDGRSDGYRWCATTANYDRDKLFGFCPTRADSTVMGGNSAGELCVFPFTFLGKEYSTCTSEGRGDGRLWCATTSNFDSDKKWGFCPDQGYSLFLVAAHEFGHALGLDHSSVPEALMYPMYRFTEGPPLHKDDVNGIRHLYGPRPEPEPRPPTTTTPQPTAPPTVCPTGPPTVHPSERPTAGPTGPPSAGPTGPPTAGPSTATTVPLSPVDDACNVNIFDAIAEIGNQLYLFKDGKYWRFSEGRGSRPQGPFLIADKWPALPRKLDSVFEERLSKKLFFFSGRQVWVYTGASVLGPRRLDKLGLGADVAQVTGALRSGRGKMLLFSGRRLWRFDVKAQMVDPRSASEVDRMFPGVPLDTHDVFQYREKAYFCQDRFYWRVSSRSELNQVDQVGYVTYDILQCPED
72 kDa type IV collagenase, sequence (P08253 whole entry, the tested form may be a part): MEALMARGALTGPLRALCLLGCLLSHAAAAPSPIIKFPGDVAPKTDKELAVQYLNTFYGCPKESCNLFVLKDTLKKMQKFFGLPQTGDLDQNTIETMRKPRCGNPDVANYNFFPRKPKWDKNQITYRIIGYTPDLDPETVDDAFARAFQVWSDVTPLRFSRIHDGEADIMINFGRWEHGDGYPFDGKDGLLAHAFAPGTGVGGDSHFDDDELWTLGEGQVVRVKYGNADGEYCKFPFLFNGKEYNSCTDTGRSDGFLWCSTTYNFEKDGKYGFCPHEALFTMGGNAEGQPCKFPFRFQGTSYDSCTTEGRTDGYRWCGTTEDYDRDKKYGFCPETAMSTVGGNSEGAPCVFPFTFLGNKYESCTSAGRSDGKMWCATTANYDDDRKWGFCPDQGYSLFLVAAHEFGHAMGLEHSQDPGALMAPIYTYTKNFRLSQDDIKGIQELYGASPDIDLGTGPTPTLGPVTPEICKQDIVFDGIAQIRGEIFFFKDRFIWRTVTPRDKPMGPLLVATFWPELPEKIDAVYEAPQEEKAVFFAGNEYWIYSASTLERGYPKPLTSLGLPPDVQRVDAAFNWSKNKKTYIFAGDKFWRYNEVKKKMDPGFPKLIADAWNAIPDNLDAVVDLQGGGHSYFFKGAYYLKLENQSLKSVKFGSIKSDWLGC

The IC50 is the concentration that gives 50% inhibition. Turning to `CCCCNc1cc(-c2ccccc2)cc2c1c(=O)[nH]c1ccccc12`, the IC50 on Collagenase 3 [1] came out at 60 µM; in data set [5], 99.5 µM; in data set [6], 56 µM; at Neutrophil collagenase, 86 µM. Moreover, the values for the Activity result (in [2]; in the data set on SN-56 [3]; in [4]) were “Non-Toxic”, “Dose-dependent effect” and 100%, respectively.

As to `Cn1c(=O)c2c(Nc3ccccc3)cc(-c3ccccc3)cc2c2ccccc21`, the IC50 (at Collagenase 3 [1]; in [5]; in data set [6]; on Neutrophil collagenase) was more than 100 µM in each case. Besides, the Activity entry in [2] was “Non-Toxic”.

In the case of `Nc1cc(-c2ccccc2)cc2c1c(=O)[nH]c1ccccc12`, the IC50 (at Collagenase 3 [1]; in [5]; in data set [6]; on Neutrophil collagenase) was more than 100 µM in each case. The Activity result in [2] was “Non-Toxic”.

As to `O=c1[nH]c2ccccc2c2cc(-c3ccccc3)cc(Nc3ccccc3)c12`, the IC50 on Collagenase 3 [1] is 42 µM; in data set [5] it was 54 µM; in data set [6], 13 µM; at Neutrophil collagenase it was 69 µM. In addition, the Activity entry in [2] is on record as “Non-Toxic”.

Take `Nc1cc(-c2cccs2)cc2c1c(=O)[nH]c1ccccc12`: the IC50 (on Collagenase 3 [1]; in data set [5]; in [6]; on Neutrophil collagenase) was more than 100 µM throughout. Moreover, the Activity result is “Non-Toxic” in [2], “Dose-dependent effect” in the data set on SN-56 [3] and 100% in data set [4]. Besides, the outcome in the data set with SN-56 [7] was Active.

In the case of `O=c1[nH]c2ccccc2c2cc(-c3ccco3)cc(Nc3ccc(F)cc3)c12`, the IC50 was more than 100 µM on Collagenase 3 [1], more than 100 µM in data set [5], 45.4 µM in data set [6] and more than 100 µM on Neutrophil collagenase. The Activity entry in data set [2] is “Non-Toxic”.

Take `CN(C)c1ccc(Nc2cc(-c3ccccc3)cc3c2c(=O)[nH]c2ccccc23)cc1`: the IC50 at Collagenase 3 [1] turned out to be 40 µM; in data set [5], 88 µM; in data set [6], 73 µM; at Neutrophil collagenase it was 84 µM. Moreover, the Activity entry in data set [2] is “Non-Toxic”.

For the compound `O=c1[nH]c2ccccc2c2cc(-c3cccs3)cc(Nc3ccc(F)cc3)c12`, the IC50 at Collagenase 3 [1] worked out at 15.8 µM; in data set [5], 20.1 µM; in data set [6], 6.8 µM; on Neutrophil collagenase it was 26.5 µM. Further, the Activity result in data set [2] was “Non-Toxic”; with SN-56 [3], “Dose-dependent effect”; in data set [4] it was 100%. In addition, the outcome in the data set with SN-56 [7] was Active.

Turning to `O=c1[nH]c2ccccc2c2cc(-c3cccs3)cc(Nc3ccccc3)c12`, the IC50 was 15.6 µM at Collagenase 3 [1], 16.1 µM in data set [5], 6.1 µM in [6] and 18 µM at Neutrophil collagenase. The Activity result in [2] is “Non-Toxic”; in the data set on SN-56 [3] it was “Dose-dependent effect”; in data set [4] it was 100%. In addition, the outcome in the data set on SN-56 [7] was Active.

For orientation: inhibition means how much of the control response was suppressed. Take `CCCCNc1cc(-c2cccs2)cc2c1c(=O)[nH]c1ccccc12`: the figures for the Activity entry (in data set [2]; in the data set on SN-56 [3]) were “Non-Toxic” and “Dose-dependent effect”, respectively. In addition, the inhibition at Collagenase 3 [8] was determined as 54%. The IC50 was more than 100 µM in [5], 38 µM in data set [6] and more than 100 µM at Neutrophil collagenase.

For `Cc1cc(C)cc(Nc2cc(-c3ccco3)cc3c2c(=O)[nH]c2ccccc23)c1`, the IC50 at Collagenase 3 [1] was 46 µM; in data set [5] it was 86 µM; in [6] it was 21.6 µM; on Neutrophil collagenase, 60 µM. In addition, the Activity entry in data set [2] was “Non-Toxic”.

`O=c1[nH]c2ccccc2c2cc(-c3ccco3)cc(Nc3ccccc3)c12`: the 50% inhibitory concentration (IC50) on Collagenase 3 [1] was 41.7 µM; in data set [5], more than 100 µM; in data set [6], 25.4 µM; at Neutrophil collagenase it was more than 100 µM. In addition, the Activity result in data set [2] is “Non-Toxic”; with SN-56 [3], “Dose-dependent effect”.

Regarding `COc1ccc(Nc2cc(-c3ccccc3)cc3c2c(=O)[nH]c2c(OC)c(OC)ccc23)cc1`, the IC50 on Collagenase 3 [1] was determined as 37 µM; in data set [5], 20.5 µM; in [6] it was 42 µM; at Neutrophil collagenase, 68 µM. Besides, the Activity result in data set [2] is on record as “Non-Toxic”.

For `Cc1c(C)c2c(c(C)c1O)CCC(C)(C(=O)O)O2` (stereo not drawn), the result with SN-56 [9] was Active.

Turning to `COc1ccc(Nc2cc(-c3ccccc3)cc3c2c(=O)[nH]c2ccccc23)cc1`, the IC50 was 16.4 µM at Collagenase 3 [1], 22 µM in data set [5], 60 µM in [6] and more than 100 µM on Neutrophil collagenase. Moreover, the values for the Activity entry (in [2]; in the data set on SN-56 [3]; in data set [4]) were “Non-Toxic”, “Dose-dependent effect” and 100%, respectively. The result with SN-56 [7] was Active.

In the case of `COc1ccc(Nc2cc(-c3ccco3)cc3c2c(=O)[nH]c2ccccc23)cc1`, the IC50 at Collagenase 3 [1] worked out at 15 µM; in data set [5] it was 9 µM; in data set [6], 9 µM; at Neutrophil collagenase it was 23 µM. For the same compound, the results for the Activity entry (in [2]; in the data set with SN-56 [3]) were “Non-Toxic” and “Dose-dependent effect”, respectively.

With `O=c1[nH]c2ccccc2c2cc(-c3ccccc3)cc(Nc3ccc(F)cc3)c12`, the IC50 at Collagenase 3 [1] is 99 µM; in data set [5] it was 99 µM; in [6] it was 98 µM; on Neutrophil collagenase, more than 100 µM. The Activity entry in [2] is “Non-Toxic”; with SN-56 [3], “Dose-dependent effect”.

For the compound `Cc1ccc(-c2cc(Nc3ccccc3)c3c(=O)[nH]c4ccccc4c3c2)cc1`, the IC50 is 41 µM on Collagenase 3 [1], 37.5 µM in [5], 84.5 µM in data set [6] and 62 µM at Neutrophil collagenase. In addition, the Activity result in data set [2] is recorded as “Non-Toxic”.

Regarding `Nc1ccc(-c2cc(Nc3ccccc3)c3c(=O)[nH]c4ccccc4c3c2)cc1`, the IC50 on Collagenase 3 [1] was determined as 73 µM; in [5] it was 28 µM; in [6], 32 µM; on Neutrophil collagenase it was 47 µM. The figures for the Activity entry (in [2]; with SN-56 [3]; in [4]) were “Non-Toxic”, “Dose-dependent effect” and 100%, respectively. In addition, in the data set with SN-56 [7], the result was Active.

Take `COc1ccc(-c2cc(Nc3ccccc3)c3c(=O)[nH]c4ccccc4c3c2)cc1`: the IC50 was 40 µM at Collagenase 3 [1], 32 µM in data set [5], 47 µM in [6] and 54 µM on Neutrophil collagenase. The figures for the Activity entry (in data set [2]; with SN-56 [3]) were “Non-Toxic” and “Dose-dependent effect”, respectively.
